Columns and labels:
Format in all cases: in vivo
[1] = test system: galium (catchweed bedstraw, Galium aparine); test: Test A postemergence, visual injury rating; settings: Galium, post-emergence, 240 h, 0 is no effect, 100 is complete control, read-out: Galium plant response rating (0 to 100 scale)
How it was run: (§1)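 Scoring: eye-based comparison with untreated controls, 0 for no effect through 100 for complete control, at about day 10. Treatments: directed soil spray preemergence; foliar spray postemergence on 2–10 cm plants at the one- to two-leaf stage. Medium: loam soil with sand.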

[2] = test system: barnyardgrass (Echinochloa crus-galli); test: Test A postemergence, visual injury rating; settings: Echinochloa crus-galli, post-emergence, 240 h, 0 is no effect, 100 is complete control, read-out: Barnyardgrass plant response rating (0 to 100 scale)
How it was run: as §1

[3] = test system: blackgrass (Alopecurus myosuroides); test: Test A postemergence, visual injury rating; settings: Alopecurus myosuroides, post-emergence, 240 h, 0 is no effect, 100 is complete control, read-out: Blackgrass plant response rating (0 to 100 scale)
How it was run: as §1

[4] = test system: crabgrass, large (large crabgrass, Digitaria sanguinalis); test: Test C preemergence, plant response rating; settings: Digitaria sanguinalis, pre-emergence, Preemergence
How it was run: (§2)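 Pre-emergence: seeds sown in loam soil–sand blend or silt loam and sprayed with test chemicals in a non-phytotoxic solvent mixture with surfactant. Post-emergence: plants 2 to 18 cm (1- to 4-leaf stage) in peat-based potting medium, same formulation. Greenhouse 13 to 15 d; visual rating 0 (no effect) to 100 (complete control) versus controls.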

[5] = test system: wheat (winter wheat, Triticum aestivum); test: Test C preemergence, plant response rating; settings: Triticum aestivum, pre-emergence, Preemergence
How it was run: as §2

[6] = test system: lambsquarters (Chenopodium album); test: Test C preemergence, plant response rating; settings: Chenopodium album, pre-emergence, Preemergence
How it was run: as §2

[7] = test system: morningglory (Ipomoea coccinea); test: Test C preemergence, plant response rating; settings: Ipomoea, pre-emergence, Preemergence
How it was run: as §2

[8] = test system: waterhemp (common waterhemp, Amaranthus rudis); test: Test C preemergence, plant response rating; settings: Amaranthus tuberculatus, pre-emergence, Preemergence
How it was run: as §2

[9] = test system: velvetleaf (Abutilon theophrasti); test: Test C preemergence, plant response rating; settings: Abutilon theophrasti, pre-emergence, Preemergence
How it was run: as §2

[10] = test system: ryegrass, Italian (Italian ryegrass, Lolium multiflorum); test: Test C preemergence, plant response rating; settings: Lolium multiflorum, pre-emergence, Preemergence
How it was run: as §2

[11] = test system: oilseed rape (Brassica napus); test: Test C preemergence, plant response rating; settings: Brassica napus, pre-emergence, Preemergence
How it was run: as §2

[12] = test system: ragweed (common ragweed, Ambrosia elatior); test: Test C preemergence, plant response rating; settings: Ambrosia artemisiifolia, pre-emergence, Preemergence
How it was run: as §2

[13] = test system: nutsedge, yellow (yellow nutsedge, Cyperus esculentus); test: Test C preemergence, plant response rating; settings: Cyperus, pre-emergence, Preemergence
How it was run: as §2

corn (Zea mays) = test: Test C preemergence, plant response rating; settings: Zea mays, pre-emergence, Preemergence
How it was run: as §2

soybean (Glycine max) = test: Test C preemergence, plant response rating; settings: Glycine max, pre-emergence, Preemergence
How it was run: as §2

[14] = test system: blackgrass (Alopecurus myosuroides); test: Test C preemergence, plant response rating; settings: Alopecurus myosuroides, pre-emergence, Preemergence
How it was run: as §2

[15] = test system: foxtail, giant (giant foxtail, Setaria faberii); test: Test C preemergence, plant response rating; settings: Setaria faberi, pre-emergence, Preemergence
How it was run: as §2

Work on N#Cc1cccc(Oc2ncc(Cl)cn2)c1CCCCC(F)(F)F [Compound 73, 3-[(5-chloro-2-pyrimidinyl)oxy]-2-(5,5,5-trifluoropentyl)benzonitrile] yielded a pest or weed control at 125 g/ha ([1]; 125 g ai/ha) of 100%, a pest or weed control at 500 g/ha ([1]; 500 g ai/ha) of 100% and a pest or weed control at 125 g/ha ([2]; 125 g ai/ha) of 90%. It also gave a pest or weed control at 500 g/ha ([2]; 500 g ai/ha) of 100%, a pest or weed control at 125 g/ha ([3]; 125 g ai/ha) of 50% and a pest or weed control at 500 g/ha ([3]; 500 g ai/ha) of 100%. The pest or weed control at 62 g/ha ([4]; 62 g ai/ha, scale of 0 to 100) was 100%, the pest or weed control at 125 g/ha ([4]; 125 g ai/ha, scale of 0 to 100) was 100% and the pest or weed control at 16 g/ha ([4]; 16 g ai/ha, scale 0 to 100) was 98%. The pest or weed control at 31 g/ha ([4]; 31 g ai/ha, scale 0 to 100) was 100%, the plant injury at 125 g/ha ([5]; 125 g ai/ha, scale of 0 to 100) was 70% and the plant injury at 16 g/ha ([5]; 16 g ai/ha, scale 0 to 100) was 0%. For the same molecule, the plant injury at 31 g/ha ([5]; 31 g ai/ha, scale 0 to 100) was 0%, the plant injury at 62 g/ha ([5]; 62 g ai/ha, scale 0 to 100) was 30% and the pest or weed control at 125 g/ha ([6]; 125 g ai/ha, scale of 0 to 100) was 100%. It also gave a pest or weed control at 16 g/ha ([6]; 16 g ai/ha, scale 0 to 100) of 85%, a pest or weed control at 31 g/ha ([6]; 31 g ai/ha, scale 0 to 100) of 90% and a pest or weed control at 62 g/ha ([6]; 62 g ai/ha, scale 0 to 100) of 90%. For the same molecule, the pest or weed control at 125 g/ha ([7]; 125 g ai/ha, scale of 0 to 100) was 75%, the pest or weed control at 16 g/ha ([7]; 16 g ai/ha, scale 0 to 100) was 0% and the pest or weed control at 31 g/ha ([7]; 31 g ai/ha, scale 0 to 100) was 10%. For the same molecule, the pest or weed control at 62 g/ha ([7]; 62 g ai/ha, scale 0 to 100) was 60%, the pest or weed control at 125 g/ha ([8]; 125 g ai/ha, scale of 0 to 100) was 100% and the pest or weed control at 16 g/ha ([8]; 16 g ai/ha, scale 0 to 100) was 65%. For the same molecule, the pest or weed control at 31 g/ha ([8]; 31 g ai/ha, scale 0 to 100) was 100%, the pest or weed control at 62 g/ha ([8]; 62 g ai/ha, scale 0 to 100) was 100% and the pest or weed control at 125 g/ha ([9]; 125 g ai/ha, scale of 0 to 100) was 95%. It also gave a pest or weed control at 16 g/ha ([9]; 16 g ai/ha, scale 0 to 100) of 0%, a pest or weed control at 31 g/ha ([9]; 31 g ai/ha, scale 0 to 100) of 30% and a pest or weed control at 62 g/ha ([9]; 62 g ai/ha, scale 0 to 100) of 75%. It also gave a pest or weed control at 125 g/ha ([10]; 125 g ai/ha, scale of 0 to 100) of 100%, a pest or weed control at 16 g/ha ([10]; 16 g ai/ha, scale 0 to 100) of 30% and a pest or weed control at 31 g/ha ([10]; 31 g ai/ha, scale 0 to 100) of 35%. For the same molecule, the pest or weed control at 62 g/ha ([10]; 62 g ai/ha, scale 0 to 100) was 85%, the plant injury at 125 g/ha ([11]; 125 g ai/ha, scale of 0 to 100) was 65% and the plant injury at 16 g/ha ([11]; 16 g ai/ha, scale 0 to 100) was 0%. It also gave a plant injury at 31 g/ha ([11]; 31 g ai/ha, scale 0 to 100) of 20%, a plant injury at 62 g/ha ([11]; 62 g ai/ha, scale 0 to 100) of 50% and a pest or weed control at 125 g/ha ([12]; 125 g ai/ha, scale of 0 to 100) of 25%. For the same molecule, the pest or weed control at 16 g/ha ([12]; 16 g ai/ha, scale 0 to 100) was 0%, the pest or weed control at 31 g/ha ([12]; 31 g ai/ha, scale 0 to 100) was 0% and the pest or weed control at 62 g/ha ([12]; 62 g ai/ha, scale 0 to 100) was 10%. It also gave a pest or weed control at 125 g/ha ([13]; 125 g ai/ha, scale of 0 to 100) of 10%, a pest or weed control at 16 g/ha ([13]; 16 g ai/ha, scale 0 to 100) of 0% and a pest or weed control at 31 g/ha ([13]; 31 g ai/ha, scale 0 to 100) of 0%. For the same molecule, the pest or weed control at 62 g/ha ([13]; 62 g ai/ha, scale 0 to 100) was 0%, the Corn plant response rating (crop injury, 0 = no effect, 100 = complete kill) at 62 g/ha (corn (Zea mays); 62 g ai/ha, scale of 0 to 100) was 40% and the Corn plant response rating (crop injury, 0 = no effect, 100 = complete kill) at 125 g/ha (corn (Zea mays); 125 g ai/ha, scale of 0 to 100) was 50%. It also gave a Corn plant response rating (crop injury, 0 = no effect, 100 = complete kill) at 16 g/ha (corn (Zea mays); 16 g ai/ha, scale 0 to 100) of 0%, a Corn plant response rating (crop injury, 0 = no effect, 100 = complete kill) at 31 g/ha (corn (Zea mays); 31 g ai/ha, scale 0 to 100) of 20% and a plant injury at 125 g/ha (soybean (Glycine max); 125 g ai/ha, scale of 0 to 100) of 40%. It also gave a plant injury at 16 g/ha (soybean (Glycine max); 16 g ai/ha, scale 0 to 100) of 0%, a plant injury at 31 g/ha (soybean (Glycine max); 31 g ai/ha, scale 0 to 100) of 0% and a plant injury at 62 g/ha (soybean (Glycine max); 62 g ai/ha, scale 0 to 100) of 25%. For the same molecule, the pest or weed control at 62 g/ha ([14]; 62 g ai/ha, scale of 0 to 100) was 100%, the pest or weed control at 125 g/ha ([14]; 125 g ai/ha, scale of 0 to 100) was 100% and the pest or weed control at 16 g/ha ([14]; 16 g ai/ha, scale 0 to 100) was 5%. It also gave a pest or weed control at 31 g/ha ([14]; 31 g ai/ha, scale 0 to 100) of 98%, a pest or weed control at 62 g/ha ([15]; 62 g ai/ha, scale of 0 to 100) of 100% and a pest or weed control at 125 g/ha ([15]; 125 g ai/ha, scale of 0 to 100) of 100%. The pest or weed control at 16 g/ha ([15]; 16 g ai/ha, scale 0 to 100) was 98% and the pest or weed control at 31 g/ha ([15]; 31 g ai/ha, scale 0 to 100) was 100%.
